Read-outs that look alike come from different tables or passages of the source.
Tests used:
[1] = biological target: T1, α-Glucosidase (yeast) (Saccharomyces cerevisiae, UniProt P53341); assay: Alpha-glucosidase (yeast) inhibition assay, pH 7.4; type: biochemical
T1 construct: purchased Sigma
Protocol: (§1) Yeast alpha-glucosidase and almond beta-glucosidase activities were measured by a modification of the method of Evans, et al., Phytochemistry 22, 768-770 (1983). The modifications included (1) assay of activities at pH 7.4 in HEPES (N-2-hydroxyethylpiperazine-N'-2-ethanesulfonic acid) buffer, 2) measurement in 96 well microtiter plates and (3) inclusion of 10% DMSO in control and test samples.
(§2) The release of p-nitrophenol from the substrate p-nitrophenylglycoside was measured spectrophotometrically in the presence and absence of test compound. Each assay included a known inhibitor of the enzyme as a standard. IC50 values were determined for compounds which inhibited the enzymes more than 50% at a 1 millimolar concentration.
(§3) To 100 μl 50 mM HEPES buffer, pH 7.4, in a microtiter plate, add 20 μl test compound in DMSO (DMSO alone in control), 40 μl (0.013 units) yeast alpha-glucosidase (Sigma) in HEPES buffer and pre-incubate at room temperature for 15 minutes. Add 40 μl 1.25 mM p-nitrophenyl-alpha-D-glucopyranoside (Sigma) in HEPES buffer, as substrate, and monitor absorbance change at 405 nm in a Biotek EIA Autoreader. Absorption change was measured at 15 to 25 minutes (reaction was linear for at least 30 minutes). Each sample was tested in triplicate. IC50 values were determined from the linear portion of the log concentration vs % inhibition curve obtained from a minimum of 3 points. Deoxynojirimycin was used as standard inhibitor.

[2] = system: β-Glucosidase (almond); assay: Beta-glucosidase (almond) inhibition assay, pH 7.4; type: biochemical
Protocol: as §1, §2
as §3, with “μl (0.136” for “μl (0.013”, “units) beta-glucosidase” for “units) yeast alpha-glucosidase”, “mM p-nitrophenyl-beta-D-glucopyranoside” for “mM p-nitrophenyl-alpha-D-glucopyranoside (Sigma)”, “as substrate” for “as substrate,”, “(reaction is” for “(reaction was”, “points. Castanospermine” for “points. Deoxynojirimycin”

[3] = system: β-Glucosidase (almond); assay: Beta-glucosidase (almond) inhibitor assay, pH 4.8; type: biochemical
Protocol: as §1, §2
To 100 μl 50 mM sodium citrate buffer, pH 4.8, in a microtiter plate, add 15 μl test compound in DMSO (DMSO alone in control), 20 μl (0.017 units) beta-glucosidase (Sigma) in citrate buffer and pre-incubate at room temperature for 15 minutes. Add 25 μl 2.50 mM p-nitrophenyl-beta-D-glucopyranoside in citrate buffer, as substrate. Incubate at room temperature 20 minutes (reaction is linear for at least 30 minutes). Add 50 μl 0.4 M NaOH. Read absorption change at 405 nm in a Biotek EIA Autoreader. Each sample was tested in triplicate. IC50 values were determined from the linear portion of the log concentration vs % inhibition curve obtained from a minimum of 3 points. Castanospermine was used as standard inhibitor.

[4] = system: visna virus; assay: Inhibition of visna virus growth, plaque reduction assay in sheep choroid plexus (SCP) cells (Method A); type: cell-based; settings: for inhibition at 1000 µM: 1.0 mM
Text: Inhibitory activity against visna virus was shown by a conventional plaque reduction assay. Visna virus, a lentivirus genetically very similar to the AIDS virus, is pathogenic for sheep and goats. See Sonigo et al., Cell 42, 369-382 (1985); Haase, Nature 322, 130-136 (1986). Inhibition of visna virus replication in vitro as a useful model for HIV and its inhibition by test compounds has been described by Frank et al., Antimicrobial Agents and Chemotherapy 31 (9), 1369-1374 (1987).
Various illustrative compounds synthesized above were tested for inhibition of visna virus in vitro in a plaque reduction assay (Method A) or for inhibition of HIV-1 in a test which measured reduction of cyto-pathogenic effect in virus-infected syncytium-sensitive Leu-3a-positive CEM cells grown in tissue culture (Method B) as follows:
Sheep choroid plexus (SCP) cells were obtained from American Type Culture Collection (ATCC) catalogue number CRL 1700 and were routinely passaged in vitro in Dulbecco's Modified Eagles (DME) medium supplemented with 20% fetal bovine serum (FBS). SCP cells were passaged once per week at a 1:2 or 1:3 split ratio. Visna was titrated by plaque assay in six-well plates. Virus pools were stored at -70° C.
SCP cells were cultured in 6-well plates to confluence. Wells were washed two times with serum free Minimal Essential Medium (MEM) to remove FBS. 0.2 ml of virus was added per well in MEM supplemented with 4 mM glutamine and gentamycin. After 1 hour adsorption, the virus was aspirated from each well. The appropriate concentration of each compound in 5 ml of Medium 199 (M-199) supplemented with 2% lamb serum, 4 mM glutamine, 0.5% agarose and gentamycin was added to each well. Cultures were incubated at 37° C. in a humidified 5% CO2 incubator for 3-4 weeks. To terminate the test, cultures were fixed in 10% formalin, the agar removed, the monolayers stained with 1% crystal violet and plaques counted. Each compound concentration was run in triplicate. […] 0 is no toxicity observed while 4 is total lysing of the cell monolayer. […]
Control wells without virus were completed to determine the toxicity of compounds.

[5] = 100 μM, pH 7.4, read-out: Percent inhibition of α-glucosidase (yeast)
[6] = 1000 μM, pH 7.4, read-out: Percent inhibition of α-glucosidase (yeast)
[7] = pH 7.4, read-out: Percent inhibition of α-glucosidase (yeast)

T1 sequence (P53341 whole entry): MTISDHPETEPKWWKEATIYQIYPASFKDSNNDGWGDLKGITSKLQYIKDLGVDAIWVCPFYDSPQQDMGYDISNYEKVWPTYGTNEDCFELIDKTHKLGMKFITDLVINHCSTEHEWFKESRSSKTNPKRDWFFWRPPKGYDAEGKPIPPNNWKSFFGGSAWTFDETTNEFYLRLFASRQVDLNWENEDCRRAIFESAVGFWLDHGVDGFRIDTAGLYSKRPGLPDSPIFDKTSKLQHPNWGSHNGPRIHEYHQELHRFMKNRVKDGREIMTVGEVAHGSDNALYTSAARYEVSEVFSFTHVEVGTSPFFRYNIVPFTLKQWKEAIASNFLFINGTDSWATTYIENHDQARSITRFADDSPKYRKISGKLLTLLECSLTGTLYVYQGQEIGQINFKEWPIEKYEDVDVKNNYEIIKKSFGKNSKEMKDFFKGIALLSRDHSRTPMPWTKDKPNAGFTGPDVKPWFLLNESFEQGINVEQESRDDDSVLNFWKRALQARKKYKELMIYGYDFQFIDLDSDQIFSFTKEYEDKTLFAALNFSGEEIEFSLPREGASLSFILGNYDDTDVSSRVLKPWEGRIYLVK

SMILES | inhibition at 100 µM [1, 5] | inhibition at 1000 µM [1, 6] | Percent inhibition of β-glucosidase (almond) ([2]; 100 μM) | Percent inhibition of β-glucosidase (almond) ([2]; 1000 μM) | Percent inhibition of β-glucosidase (almond) ([3]; 100 μM) | Percent inhibition of β-glucosidase (almond) ([3]; 1000 μM) | inhibition at 10 µM ([4]; Visna-maedi virus, 0.01 mM) | inhibition at 100 µM ([4]; Visna-maedi virus, 0.1 mM) | further results
CCCCN1C[C@H](Sc2nnnn2C)[C@@H](O)[C@H](O)[C@H]1CO [56(a), 1,5-(Butylimino)-1,5-dideoxy-2-S-(1-methyl-1H-tetrazol-5-yl) 2-thio-D-glucitol] | 18.1% | -8.2% | -3.4% | -15.8% | -0.9% | 13.7% | – | – | –
CCCCN1[C@H](CO)[C@@H](O)[C@H](O)[C@H]1CSc1nnnn1C [56(b), 2,5-(Butylimino)-2,5-dideoxy-1S-(1-methyl-1H-tetrazol-5-yl) 1-thio-D-mannitol] | 15.6% | 15.7% | -6% | 5.7% | 7.5% | 29.4% | – | – | –
CCCCCCCCCN1C[C@H](Cl)[C@@H](O)[C@H](O)[C@H]1CO [Example 29, 2-Chloro-1,2,5-trideoxy-1,5-(nonylimino)-D-glucitol] | – | – | 54.7% | 91.9% | 33.1% | 52.8% | – | – | % inhibition of visna virus growth ([4]; 0.001 mM): 23%; % inhibition of visna virus growth ([4]; 0.01 mM): 53%; % inhibition of visna virus growth ([4]; 0.1 mM): 100%; inhibition at 1 µM [1, 7]: 11.5%; inhibition at 10 µM [1, 7]: 61.5%; inhibition at 100 µM [1, 7]: 91.8%; inhibition at 1000 µM [1, 7]: 102%
OC[C@@H]1[C@@H](O)[C@H](O)[C@@H](Cl)CN1Cc1ccccc1 [Example 32, 2-Chloro-1,2,5-trideoxy-1,5-(phenylmethyl)imino-D-glucitol] | – | – | – | – | – | – | -3% | 28% | inhibition at 1 µM ([4]; Visna-maedi virus, 0.001 mM): 12%
CCCCN1C[C@H](OC(=O)OCC(C)C)[C@@H](O)[C@H](O)[C@H]1CO [Example 34, 1,5-(Butylimino)-1,5-dideoxy-D-glucitol, 2-[(2-methylpropyl)-carbonate]] | – | – | – | – | – | – | 7% | 89% | inhibition at 1 µM ([4]; Visna-maedi virus, 0.001 mM): -2%; inhibition at 1000 µM ([4]; Visna-maedi virus): 100%
CCCCN1C[C@H](OC(=O)Nc2ccccc2)[C@@H](O)[C@H](O)[C@H]1CO [Example 35] | – | – | – | – | – | – | 31% | 41% | –
CCCCN1C[C@H](Cl)[C@@H](OC(C)=O)[C@H](OC(C)=O)[C@H]1COC(C)=O [Example 38, 1,5-(Butylimino)-2-chloro-1,2,5-trideoxy-D-glucitol, triacetate] | – | – | – | – | – | – | 61% | 86% | inhibition at 1000 µM ([4]; Visna-maedi virus): 97%
CC(=O)OC[C@@H]1[C@@H](OC(C)=O)[C@H](OC(C)=O)[C@@H](Cl)CN1CCCc1ccccc1 [Example 39, 2-Chloro-1,2,5-trideoxy-1,5-(3-phenyl)propylimino-D-glucitol, triacetate] | – | – | – | – | – | – | – | – | inhibition at 0.5 µM ([4]; Visna-maedi virus, 0.0005 mM): 44%; inhibition at 5 µM ([4]; Visna-maedi virus, 0.005 mM): 58%; inhibition at 50 µM ([4]; Visna-maedi virus, 0.05 mM): 98%
CCCCN1C[C@H](Cl)[C@@H](OC(=O)CCC)[C@H](OC(=O)CCC)[C@H]1COC(=O)CCC [Example 40, 1,5-(Butylimino)-2-chloro-1,2,5-trideoxy-D-glucitrol, tributyrate] | – | – | – | – | – | – | 24% | 77% | inhibition at 1 µM ([4]; Visna-maedi virus, 0.001 mM): 0%
CCCCN1C[C@H]2O[C@H]2[C@H](OC(C)=O)[C@H]1COC(C)=O [Example 45, 2,3-Anhydro-1,5-(butylimino)-1,5-dideoxy-D-mannitol, diacetate] | – | – | – | – | – | – | 5% | 44% | inhibition at 1000 µM ([4]; Visna-maedi virus): 85%
CCCCN1[C@H](CN)[C@@H](O)[C@H](O)[C@H]1CO [Example 48, 1-Amino-2,5-(butylimino)-1,2,5-trideoxy-D-mannitol] | 24.6% | 60.9% | 6.9% | 43.1% | 9.5% | 27.9% | – | – | –
CCCCN(CCCC)C[C@@H]1[C@@H](O)[C@H](O)[C@@H](CO)N1CCCC [Example 49, 2,5-(Butylimino)-1-(dibutylamino)-1,2,5-trideoxy-D-mannitol] | -12.6% | -20.5% | -5.3% | 0.2% | 10.9% | 18.8% | – | – | –
CCCCN1[C@H](CO)[C@@H](O)[C@H](O)[C@H]1CNC(C)=O [Example 51, 1-(Acetylamino)-2,5-(butylimino)-1,2,5-trideoxy-D-mannitol] | 27.1% | 39.3% | -3.8% | 4.4% | 6% | 26% | – | – | –
CCCCN1C[C@H](C#N)[C@@H](O)[C@H](O)[C@H]1CO [Example 53, 1,5-(Butylimino)-2-cyano-1,2,5-trideoxy-D-glucitol] | 20.1% | -29.4% | -4.2% | -7.3% | 1.6% | 9.5% | – | – | –
CCCCN1[C@H](CO)[C@@H](O)[C@H](O)[C@H]1CC#N [Example 54, 3,6-(Butylimino)-2,3,6-trideoxy-D-manno-heptanonitrile] | 23.5% | 22.6% | -7.8% | -7.9% | 0.1% | 4.1% | – | – | –
CCCCN1[C@H](CO)[C@@H](O)[C@H](O)[C@H]1COC(=O)c1ccccc1 [Example 58, 2,5-(Butylimino)-2,5-dideoxy-D-mannitol, 1-benzoate] | 36.2% | 44% | -7.5% | 13.2% | 1.8% | 18.6% | – | – | –

— patent US5612480A, “2-chloro and 2-bromo derivatives of 1,5-iminosugars” (priority 1995, dated 1997)
